Test [1] concerns Staphylococcus epidermidis. Put plainly: Antibacterial activity against Staphylococcus epidermidis UC30031UC. In kind it is functional.
In a further test the test system is Enterococcus faecalis. As to the kind of experiment: Antibacterial activity against Enterococcus faecalis UC9217. It counts as functional.
The next test has as its system Bacteroides fragilis. As to the kind of experiment: Antibacterial activity against Bacteroides fragilis UC12199. It counts as functional.
The test system of the next test is Mus musculus. Put plainly: Effective dose required to inhibit Staphylococcus aureus UC9213 in mice subjected to a lethal systemic infection (when administered orally). It counts as functional, organism-based.

≈ marks a conversion by molar mass, not a printed value.

A word on the MIC: it is the lowest concentration found to suppress growth. Higher therefore signals a need for much substance. In the case of `CC(=O)NC[C@@H]1OC(=O)N2c3ccc(-c4ccccc4)cc3C[C@@H]12`, the minimum inhibitory concentration (MIC) in test [1] came out at 2 µg/mL (≈ 6.2 µM); against Enterococcus faecalis it was 4 µg/mL (≈ 12.4 µM); with Bacteroides fragilis, 32 µg/mL (≈ 99.3 µM). Moreover, the EC50 in the test with Mus musculus was more than 25 mg/kg.

(Values after ChEMBL document CHEMBL1130991, “Synthesis and antibacterial activity of [6,5,5] and [6,6,5] tricyclic fused oxazolidinones” (Bioorg Med Chem Lett, 1998).)
